Experimental data from patent US10238688B2, “Combination therapies for bladder cancer” (GENEDIA BIOTECH CO. LTD., priority 2015, dated 2019).

What was measured:
Type in all cases: cell-based, human
[1] = test system: Hypoxia pathway; experiment: Cignal Finder dual-luciferase pathway reporter, Hypoxia; parameters: key to Relative activity, Hypoxia reporter: firefly/renilla ratio, background (negative control) subtracted; conditions: for Relative activity, Hypoxia reporter: luc/Renluc relative to negative control reporter, single drug at 4 folds vs EH/Ci/Mi combination
Experimental: (§1) The pathway analysis was performed with Qiagen's Cignal Finder Pathway Reporter Array systems according to the manufacturer's instructions. The pathway-focused dual-luciferase reporter construct was a mixture of an inducible transcription factor responsive firefly luciferase reporter and constitutively expressing renilla construct. Transcriptional response element (TRE) sequence response elements to each specific transcriptional factor triggered by the different signaling pathways are positioned before the TATA box of firefly luciferase reporter gene. The extent of activity of the reporter reflects the level of activity of the particular signaling pathway. CMV controlled renilla expression vector is co-transfected into the cell as an internal control. Non-inducible reporter construct that lacks the transcriptional factor binding sequence and could not be induced by any transcription factors is used as a negative control. Cells transfected with CMV directed firefly luciferase reporter gene serve as a positive control. Briefly, cells seeded in 6-well plates were transfected with Cignal finder pathway arrays according to the manufacturer's instructions (Qiagen). Then cells were seeded onto 96-well plates. Ci (6000 ng/mL), Mi (800 ng/mL), or EH (1000 ng/mL) and Ci/Mi/EH combination (Ci, 1500 ng/mL, Mi, 800 ng/mL and EH, 1000 ng/m L) were then added to the cells 24 h post-transfection. After 6 h of incubation with the different drugs at 37° C., cells were lysed and a dual luciferase assay (for firefly and renilla luciferase) was performed using a PromegaGloMax 20/20 illuminometer. The firefly luciferase activities were normalized over the renilla luciferase activities after background activity determined by luciferase activities of negative controls was subtracted. A triple test of cell survival under these drug doses was also performed by MTT assay following 18 h incubation at 37° C. […]

[2] = test system: EJ; experiment: MTT cell survival / IC50, EJ cells
[3] = test system: Myc/Max pathway; experiment: Cignal Finder dual-luciferase pathway reporter, Myc/Max; conditions: for Relative activity, Myc/Max reporter: luc/Renluc relative to negative control reporter, single drug at 4 folds vs EH/Ci/Mi combination
Experimental: as §1, with “Ci (6000 ng/mL), Mi (800 ng/mL), or EH (1000 ng/mL) and Ci/Mi/EH combination (Ci, 1500 ng/mL, Mi, 800 ng/mL and EH, 1000 ng/m L) were then added to the cells 24 h post-transfection.” left out

[4] = test system: Heat Shock pathway; experiment: Cignal Finder dual-luciferase pathway reporter, Heat Shock; parameters: key to Relative activity, Heat Shock reporter: firefly/renilla ratio, background (negative control) subtracted; conditions: for Relative activity, Heat Shock reporter: luc/Renluc relative to negative control reporter, single drug at 4 folds vs EH/Ci/Mi combination
Experimental: as §1, with “Ci (6000 ng/mL), Mi (800 ng/mL), or EH (1000 ng/mL) and Ci/Mi/EH combination (Ci, 1500 ng/mL, Mi, 800 ng/mL and EH, 1000 ng/m L) were then added to the cells 24 h post-transfection.” left out

COC12C(COC(N)=O)C3=C(C(=O)C(C)=C(N)C3=O)N1CC1NC12 (stereo not shown) [Mi, [6-Amino-8a-methoxy-5-methyl-4,7-dioxo-1,1a,2,4,7,8,8a,8b-octahydroazireno [2′,3′:3,4]pyrrolo[1,2-a]indol-8-yl]methyl carbamate]
relative drug trigged pathway activity over the no-drug level, Hypoxia ([1]; 5637 cells): 3.31 fold
Relative activity, Hypoxia reporter ([1]; 5637 cells): 75.18
relative drug trigged pathway activity over the no-drug level, Hypoxia ([1]; Biu87 cells): 3.56 fold
Relative activity, Hypoxia reporter ([1]; Biu87 cells): 26.99
digitalized pathway activity, Hypoxia ([1]; H-bc cells): 0 (null (0) if neither of the above holds)
relative drug trigged pathway activity over the no-drug level, Hypoxia ([1]; H-bc cells): 0.58 fold
Relative activity, Hypoxia reporter ([1]; H-bc cells): 20.08
relative drug trigged pathway activity over the no-drug level, Hypoxia ([1]; SV-HUC-1 cells): 2.08 fold
Relative activity, Hypoxia reporter ([1]; SV-HUC-1 cells): 52.50
digitalized pathway activity, Hypoxia ([1]; UM-UC-3 cells): 0 (null (0) if neither of the above holds)
Relative activity, Hypoxia reporter ([1]; UM-UC-3 cells): 45.95
relative drug trigged pathway activity over the no-drug level, Hypoxia ([1]; Um-Uc-3 cells): 0.73 fold
Cell survival (%) ([2]; Table S3, ng/ml: Pi 40, Pa 160, EH 250, Ci 1500, Mi 200, 1=Ci/Mi, 2=EH/Ci/Mi, 3=Pa/Ci/Mi, 4=Pi/Ci/Mi): 45.2%
Single drug 4X Cell Survival (%) ([2]; ng/ml: EH 1000, Ci 6000, Mi 800, Pi 160, Pa 640, Ge 20, EH/Ci/Mi regimen): 28.67%
relative drug trigged pathway activity over the no-drug level, Myc/Max ([3]; 5637 cells): 1.97 fold
Relative activity, Myc/Max reporter ([3]; 5637 cells): 21.77
digitalized pathway activity, Myc/Max ([3]; Biu87 cells): 0 (null (0) if neither of the above holds)
relative drug trigged pathway activity over the no-drug level, Myc/Max ([3]; Biu87 cells): 1.16 fold
Relative activity, Myc/Max reporter ([3]; Biu87 cells): 9.49
digitalized pathway activity, Myc/Max ([3]; H-bc cells): 0 (null (0) if neither of the above holds)
relative drug trigged pathway activity over the no-drug level, Myc/Max ([3]; H-bc cells): 0.75 fold
Relative activity, Myc/Max reporter ([3]; H-bc cells): 9.86
digitalized pathway activity, Myc/Max ([3]; SV-HUC-1 cells): 0 (null (0) if neither of the above holds)
relative drug trigged pathway activity over the no-drug level, Myc/Max ([3]; SV-HUC-1 cells): 1.45 fold
Relative activity, Myc/Max reporter ([3]; SV-HUC-1 cells): 160.00
Relative activity, Myc/Max reporter ([3]; UM-UC-3 cells): 22.41
relative drug trigged pathway activity over the no-drug level, Myc/Max ([3]; Um-Uc-3 cells): 0.38 fold
digitalized pathway activity, Heat Shock ([4]; 5637 cells): 0 (null (0) if neither of the above holds)
relative drug trigged pathway activity over the no-drug level, Heat Shock ([4]; 5637 cells): 1.38 fold
Relative activity, Heat Shock reporter ([4]; 5637 cells): 19.47
relative drug trigged pathway activity over the no-drug level, Heat Shock ([4]; Biu87 cells): 4.54 fold
Relative activity, Heat Shock reporter ([4]; Biu87 cells): 8.60
relative drug trigged pathway activity over the no-drug level, Heat Shock ([4]; H-bc cells): 0.3 fold
Relative activity, Heat Shock reporter ([4]; H-bc cells): 1.12
digitalized pathway activity, Heat Shock ([4]; SV-HUC-1 cells): 0 (null (0) if neither of the above holds)
relative drug trigged pathway activity over the no-drug level, Heat Shock ([4]; SV-HUC-1 cells): 1.01 fold
Relative activity, Heat Shock reporter ([4]; SV-HUC-1 cells): 40.00
digitalized pathway activity, Heat Shock ([4]; UM-UC-3 cells): 0 (null (0) if neither of the above holds)
Relative activity, Heat Shock reporter ([4]; UM-UC-3 cells): 4.03
relative drug trigged pathway activity over the no-drug level, Heat Shock ([4]; Um-Uc-3 cells): 0.93 fold
